Reference: PMC6987128, “Target protein-oriented isolation of Hes1 dimer inhibitors using protein based methods” (Scientific Reports, 2020)

Target: T1, Hes1 dimer formation (Hes1-Hes1 interaction) (Rattus norvegicus, UniProt Q04666)
T1 construct: Glutathione-S-transferase (GST) fused rat Hes1(3–281) protein was expressed in Escherichia coli; GST (N, cleaved yes); GST (N); made in house; host or cells: Escherichia coli JM109 (pGEX-ratHes1 3-281)
T1 sequence (Q04666 3-281): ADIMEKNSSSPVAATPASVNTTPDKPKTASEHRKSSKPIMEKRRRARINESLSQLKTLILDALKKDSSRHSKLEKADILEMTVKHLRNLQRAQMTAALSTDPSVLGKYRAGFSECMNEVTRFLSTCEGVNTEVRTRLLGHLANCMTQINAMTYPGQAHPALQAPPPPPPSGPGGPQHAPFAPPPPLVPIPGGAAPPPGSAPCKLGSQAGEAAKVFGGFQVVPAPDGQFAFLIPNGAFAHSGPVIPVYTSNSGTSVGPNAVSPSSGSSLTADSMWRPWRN
Test: Hes1-Hes1 interaction fluorescent plate assay (Hes1 dimer formation inhibition)
Assay type: binding
Text: It is essential to inhibit undesired PPIs in drug development, and bioactivity-guided isolation using the inhibitory activity of PPIs is an attractive method to obtain effective inhibitors. However, currently there are only a few examples of such approaches using PPI assay systems[22],[23]. We previously developed a Hes1-Hes1 interaction fluorescent plate assay and reported the screening results of our natural products compound library (Fig. 2A)[24]. Glutathione-S-transferase (GST) fused rat Hes1(3–281) protein was expressed in Escherichia coli and purified rat Hes1 protein was immobilized on the bottom of 96 well plates. We prevented GST-GST interactions, which would result in false positives, by preparing GST-free Hes1 protein by GST cleavage with Turbo3C protease. After labeling Hes1 with Cy3, this florescent Hes1 protein was added to the wells of the above plate and incubated for 24 h at 4 °C. Hes1-Hes1 interaction was successfully detected as Cy3 fluorescence intensity. Using this assay system, we screened our 118 plant extract library and identified the MeOH extract of Psidium guajava leaves to contain naturally occurring compounds that inhibit Hes1 dimer formation. The MeOH extract (29.9 g) was fractionated using Diaion HP-20 with a MeOH-acetone solvent system to afford fractions 1A to 1C. Active fraction 1A (27.2 g) was suspended in 10% aq. MeOH and partitioned with hexane, EtOAc and BuOH to obtain hexane (1.1 g), EtOAc (5.7 g), BuOH (4.7 g) and aqueous (18.9 g) soluble fractions. Part of the active BuOH soluble fraction was subjected to ODS column chromatography and reverse-phase HPLC. Activity-guided separation yielded ten compounds (1–10; Fig. 3). The isolated compounds were identified as morin (1)[25], isoquercitrin (2)[26], methyl gallate (3)[27], (+)-catechin (4)[28],[29], dihydrophaseic acid (5)[30], quercetin (6)[26],[31], avicularin (7)[32],[33], gallic acid (8)[34], protocatechuic acid (9)[35] and 4-hydroxybenzoic acid (10)[36] based on comparisons of their spectral data with spectra in the literature.
Hes1-bound microplate wells[24] (Nunc Immobilizer^TM Amino Plate, Thermo) were incubated with 50 μL of Cy3-labeled-Hes1 in NET-N buffer (NET buffer (20 mM Tris-HCl, pH 7.5, 200 mM NaCl, 1 mM EDTA) containing 0.05% Nonidet® P-40, ca. 7 mg/L, dye/protein = 0.4) for 24 h at 4 °C. After removing the protein solution, the wells were washed twice with 200 μL of PBST, then each compound solution (in NET-N buffer, 50 μL) was added and the plates were incubated for 1 h at RT in the dark. The wells were washed twice with 200 μL of PBST, then dried under reduced pressure for 1 h in the dark. The Cy3 dye was excited at 544 nm and emission was monitored at 590 nm using a microplate reader (Fluoroskan Ascent, Thermo Labsystems, Vantaa, Finland). The assays were typically carried out in three individual wells, and the mean value and SD were calculated. The equilibrium between dimer formation between Cy3-Hes1/Cy3-Hes1 (in solution) and Cy3-Hes1/immobilized-Hes1 allowed the detection of Cy3-Hes1/immobilized-Hes1.
Typical procedure; Nunc Immobilizer^TM Amino 96 well Plate, white (Nalge Nunc Int., NY, USA) was used for immobilizing of Hes1. The micro plate wells were incubated with 100 µl of Hes1 (10 µg/mL in PBS) 2 h at 4 °C. After removing protein solution, the wells were incubated for 2 h at 4 °C with 100 µL of 10 mM ethanolamine (in 100 mM Na2CO3 buffer, pH 9.6) to block remaining activated units on the well. Then, wells were washed twice with 200 µL of PBST (PBS containing 0.05% Tween 20).
The Cy3 dye reagent was prepared as 1 vial of Cy3 monofunctional dye reagent (succinimidylester type; GE Healthcare, Buckinghamshire, UK) in DMSO (50 µL) and stored at -20 °C. Cy3-labeled Hes1 was prepared by mixing of protein in PBS with Cy3 dye reagent in DMSO (typically 0.6 µL of DMSO solution to 1 mL of 10 mg/L protein solution in PBS) for 30 min at 4 °C in the dark. […]

remaining activity at 2.5 µM (24 h, 2.5 μM compound, 0 μM = 100, read-out: Hes1 dimer formation rate (%)): 50.4% | remaining activity at 5 µM (24 h, 5 μM compound, 0 μM = 100, read-out: Hes1 dimer formation rate (%)): 27.6% | remaining activity at 10 µM (24 h, 10 μM compound, 0 μM = 100, read-out: Hes1 dimer formation rate (%)): 18.1% | remaining activity at 25 µM (24 h, 25 μM compound, 0 μM = 100, read-out: Hes1 dimer formation rate (%)): 4.1% | IC50 (Cy3-labeled Hes1 / immobilized Hes1, compound 1 h at RT, read-out: Hes1 dimer formation inhibitory activity IC50): 2.53 µM
SMILES: CC1OC(Oc2cc3c(=O)oc4c(O)c(O)cc5c(=O)oc(c2O)c3c45)C(O)C(O)C1OC(=O)c1cc(O)c(O)c(O)c1 [Compound 11, 4-O-(4″-O-galloyl-α-L-rhamnopyranosyl)ellagic acid]
